Experimental data reported in patent US20230098332A1, “HETEROCYCLIC DERIVATIVES AS TRMP8 ANTAGONISTS” (Givaudan SA, priority 2020, published 2023).

Columns and labels:
[1] = test system: trained group of panelists; assay: Sensory studies in aqueous solution (trained panelists, cooling in the mouth); type: in vivo, human; conditions: 40 ppm in aqueous solution, 20 mL swilled in the mouth for 60 seconds; for Cooling after 1 hour / Max. cooling: averaged panel score 0-10
Experimental: The compounds as listed below in Table 2 were dissolved at a concentration of 1 wt-% in propylene glycol. These solutions were then dispensed in appropriate quantities into deionized water containing 0.5 wt-% Poloxamer 407 (which is a hydrophilic non-ionic surfactant, e.g., commercially available from SigmaAldrich) and 0.25 wt-% Cremaphor® RH40 (obtained from BASF) as solubilizer, to obtain the desired final concentration of 40 ppm (parts per million) of the respective compound.
A trained group of panelists evaluated the aqueous solutions containing test compound by swilling 20 mL of the solution in the mouth for 60 seconds, followed by spitting, without rinsing the mouth afterwards for the duration of the evaluation. Panelists evaluated and recorded the cooling performance as well as other sensorial and organoleptic attributes at different timepoints over a period of two hours. Cooling performance was rated on a scale from 0 to 10 with 0 being no effect and 10 being freezing. Scores were averaged for all panelists and the cooling intensity qualified as “N” for “none” (score of 0), “L” for “low” (score above 0, up to 1), “M” for “medium” (score above 1, up to 4), “S” for “strong” (score above 4, up to 8) and “E” for “extreme” (score above 8), which are provided in Table 2.

[2] = test system: trained group of panelists; assay: Sensory studies in model dentifrice (trained panelists, cooling in the mouth); type: in vivo, human; conditions: 100 ppm in model unflavored dentifrice, brushing with 1 g for 60 seconds; for Cooling after 1 hour / Max. cooling: averaged panel score 0-10
Experimental: The compounds listed in Table 3 were dissolved at a concentration of 1 wt-% in propylene glycol. These solutions were then dispersed in appropriate quantities to obtain the desired final concentration of 100 ppm (parts per million) of the test compound into a model, unflavored dentifrice, the formula of which is given below (ingredients obtained from the suppliers respectively indicated in parenthesis).
A trained group of panelists evaluated the dentifrice containing a compound of formula (I), by brushing their teeth with 1 g of the dentifrice using a toothbrush for 60 seconds, followed by spitting, without rinsing the mouth afterwards for the duration of the evaluation. Panelists evaluated and recorded the cooling performance as well as other sensorial and organoleptic attributes at different timepoints over a period of two hours. Cooling performance was rated on a scale from 0 to 10 with 0 being no effect and 10 being freezing. Scores were averaged for all panelists and the cooling intensity qualified as “N” for “none” (score of 0), “L” for “low” (score above 0, up to 1), “M” for “medium” (score above 1, up to 4), “S” for “strong” (score above 4, up to 8) and “E” for “extreme” (score above 8), which are summarized below in Table 3.

hTRPM8 = target: T1, hTRPM8 (Homo sapiens, UniProt Q7Z2W7); assay: Assay on TRPM8 modulators: calcium imaging (Fluo-4, Flexstation) in HEK293 cell line stably expressing hTRPM8; type: cell-based; conditions: TRPM8 agonist activity, calcium influx, HEK293 stably expressing hTRPM8, sigmoidal dose-response fit
T1 construct: expressed in transfected cells
T1 sequence (Q7Z2W7 whole entry): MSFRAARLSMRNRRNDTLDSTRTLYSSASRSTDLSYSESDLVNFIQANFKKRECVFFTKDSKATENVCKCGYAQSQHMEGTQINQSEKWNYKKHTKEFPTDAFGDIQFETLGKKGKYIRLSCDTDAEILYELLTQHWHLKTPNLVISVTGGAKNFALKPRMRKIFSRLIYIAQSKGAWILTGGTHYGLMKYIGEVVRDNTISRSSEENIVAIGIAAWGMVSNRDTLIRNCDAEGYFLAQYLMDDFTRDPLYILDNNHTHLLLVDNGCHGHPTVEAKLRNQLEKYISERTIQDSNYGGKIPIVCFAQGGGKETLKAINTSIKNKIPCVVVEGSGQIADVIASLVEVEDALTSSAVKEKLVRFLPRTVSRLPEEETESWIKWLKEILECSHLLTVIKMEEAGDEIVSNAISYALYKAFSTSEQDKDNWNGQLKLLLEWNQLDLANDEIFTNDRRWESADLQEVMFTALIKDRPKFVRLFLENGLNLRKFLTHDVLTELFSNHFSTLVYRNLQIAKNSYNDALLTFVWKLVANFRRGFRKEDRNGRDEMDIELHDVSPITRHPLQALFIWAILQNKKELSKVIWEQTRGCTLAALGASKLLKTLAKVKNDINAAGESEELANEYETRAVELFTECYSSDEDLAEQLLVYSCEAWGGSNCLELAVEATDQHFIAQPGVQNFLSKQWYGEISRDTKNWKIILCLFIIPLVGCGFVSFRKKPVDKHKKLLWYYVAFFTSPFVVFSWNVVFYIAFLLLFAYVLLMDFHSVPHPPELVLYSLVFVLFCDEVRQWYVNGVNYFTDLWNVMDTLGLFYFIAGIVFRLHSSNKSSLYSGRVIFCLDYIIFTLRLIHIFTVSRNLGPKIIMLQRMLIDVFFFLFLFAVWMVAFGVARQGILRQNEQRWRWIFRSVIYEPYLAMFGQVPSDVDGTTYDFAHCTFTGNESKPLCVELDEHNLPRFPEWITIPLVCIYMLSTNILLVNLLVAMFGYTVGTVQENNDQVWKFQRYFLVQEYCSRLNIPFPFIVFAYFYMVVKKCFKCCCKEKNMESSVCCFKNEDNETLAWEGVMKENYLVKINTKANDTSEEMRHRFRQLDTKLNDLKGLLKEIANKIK
Outline: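 Calcium influx monitored by Fluo-4 (2.7 μM with […] probenecid, 1 h 37 °C loading) in HEK293 cells stably expressing hTRPM8, in HEPES buffer pH 7.4 with 2 mM CaCl2. Fluorescence read 15 s before and 105 s after adding serial compound dilutions. Maximal activation relative to solvent and 31.6 μM menthol; EC50 from sigmoidal fit.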

Row | EC50 (hTRPM8) [nM] | SMILES | Time of max. cooling [1] [min] | Cooling after 1 hour [1] | Max. cooling [1] | Time of max. cooling [2] [min] | Cooling after 1 hour [2] | Max. cooling [2]
1 | < 50 | Cc1cc(C)c(CCCN2CCOCC2)c(Oc2ccccc2C#N)c1 [compound 125, 2-(3,5-dimethyl-2-(3-morpholinopropyl)phenoxy)benzonitrile] | 10 | M (“M” for “medium” (score above 1, up to 4)) | M (“M” for “medium” (score above 1, up to 4)) | 30 | M (“M” for “medium” (score above 1, up to 4)) | M (“M” for “medium” (score above 1, up to 4))
2 | 50 to 300 | Cc1ccc(N(C)CCN2CCN(C)CC2)c(Cc2ccccc2)c1 [compound 137, 2-benzyl-N,4-dimethyl-N-(2-(4-methylpiperazin-1-yl)ethyl)aniline] | 10 | M (“M” for “medium” (score above 1, up to 4)) | S (“S” for “strong” (score above 4, up to 8)) | 10 | L (“L” for “low” (score above 0, up to 1)) | M (“M” for “medium” (score above 1, up to 4))
3 | 50 to 300 | Cc1cc(C)c(OCCN2CCOCC2)c(Cc2c(F)cccc2F)c1 [compound 149, 4-(2-(2-(2,6-difluorobenzyl)-4,6-dimethylphenoxy)ethyl)morpholine] | 20 | M (“M” for “medium” (score above 1, up to 4)) | S (“S” for “strong” (score above 4, up to 8)) | 30 | M (“M” for “medium” (score above 1, up to 4)) | M (“M” for “medium” (score above 1, up to 4))
4 | 50 to 300 | Cc1cc(C)c(OCCN2CCOCC2)c(Cc2ccccc2F)c1 [compound 153, 4-(2-(2-(2-fluorobenzyl)-4,6-dimethylphenoxy)ethyl)morpholine] | 20 | M (“M” for “medium” (score above 1, up to 4)) | M (“M” for “medium” (score above 1, up to 4)) | 5 | L (“L” for “low” (score above 0, up to 1)) | M (“M” for “medium” (score above 1, up to 4))
